Measured values as given in patent US5707615A, “Method of treating HIV infections with anti-viral formulations” (Merrell Pharmaceuticals Inc., priority 1997, dated 1998).

Tests used:
[1] = system: influenza; details: cited from earlier work
[2] = system: GB8 virus in JM cells; assay: Virus infection of JM cells with GB8 in the presence of test compounds: syncytia and P24 (Example II); details: Table II; for SYNCYTIA % / P24 %: % of control; for SYNCYTIA %: 2880 min; for P24 %: 5760 min
Method: Virus infection of JM cells was carried out in the presence of different concentrations of test compounds. JM cells (1×10^5) and 50-100 syncytial forming units of virus (GB8) were added to duplicate wells of a tissue culture plate containing 1 mL volumes of growth medium with or without drug. The plate was incubated for 2 days at 37° C. and then scored for the presence of syncytia. At the same time the cells were washed and the growth medium replaced. After a further two days incubation, the cell free supernatant fluids were harvested and assayed for levels of P24 viral core antigen using the Coulter™ HIV Antigen assay.

[3] = system: HIV-I (GB8); assay: Pretreatment of JM cells and block of HIV-I (GB8) infection (Example IV); details: pretreated overnight at 20 μg/mL; for MEAN SYNCYTIA: 2 days; for P24 % / SYNCYTIA %: % of control, 2880 min
[4] = system: HIV strain RF; assay: Ability to prevent virus-induced cell death using MT4 cells and strain RF (Example III); type: cell-based; details: MT4 cells, 7 days, MTT, 10080 min
Method: (§1) Various oligomers were dissolved in RPMI and were then assayed for anti-HIV activity by making doubling dilutions of the solutions across a 96 well microtitre plate. To each well were then added 5×10^4 cells and 100 TCID50 of virus and the plates incubated at 37° C. for 7 days. MTT was added to each well and the plates incubated for a further 2 hours. The blue formazan crystals were dissolved using acidic isopropanol, and the absorbance measured at 540 nm.

[5] = system: MT4 cells; assay: Toxicity to MT4 cells (TD50, Table IV, MTT); type: cell-based; details: MT4 cells, 7 days, MTT
Method: as §1

[6] = system: HIV-I, GB8; assay: Ability to prevent syncytia formation and expression of P24 viral core antigen using JM cells and GB8 virus strain (Example I); type: cell-based; details: for P24 % CONTROL: 4320 min; for SYNCYTIA: after 3 days
Method: The virus was first incubated with an oligomer for 15 minutes and then the cells were added. After 2 hours adsorption, the virus innoculum was removed and the cells were washed three times to remove traces of input virus. Antiviral activity was determined after 3 days incubation by plotting the mean number of syncytia found in quadruple cultures against log10 concentration of anionic polymer or of other test compounds. The potency of an oligomer was also measured by assaying viral core antigen (P24 test-Abbott) in the supernatant fluid. Heparin, dextran sulfate, rs CD4, ATZ and/or ddC data, when included in any of the following Tables, are provided as positive controls.

In the case of 2-deoxy-2-fluoroglucose, the viral protein glycosylation [1] is listed as “inhibited viral protein glycosylation”.

In the case of “poly[imino(2,5-disulfo-1,4-phenylene)iminocarbonyl], alpha-{[(4-methylphenyl)amino]carbonyl}-omega-[(4-methylphenyl)amino]- [Example 3A]”, the “SYNCYTIA (2 DAYS) MEAN” value ([2]; 0.6 μg/mL) is reported as 51, the SYNCYTIA % ([2]; 0.6 μg/mL) is reported as 120% and the P24 ([2]; 1.25 μg/mL) is reported as 4.3 × 10^5 units/mL. For the same substance, the “SYNCYTIA (2 DAYS) MEAN” value ([2]; 1.25 μg/mL) was 20, the SYNCYTIA % ([2]; 1.25 μg/mL) was 48% and the P24 % ([2]; 1.25 μg/mL) was 100%. For the same substance, the P24 ([2]; 2.5 μg/mL) was 2.5 × 10^5 units/mL, the “SYNCYTIA (2 DAYS) MEAN” value ([2]; 2.5 μg/mL) was 38 and the SYNCYTIA % ([2]; 2.5 μg/mL) was 90%. For the same substance, the P24 % ([2]; 2.5 μg/mL) was 69%, the P24 ([2]; 5 μg/mL) was 3.6 × 10^5 units/mL and the “SYNCYTIA (2 DAYS) MEAN” value ([2]; 5 μg/mL) was 15. The SYNCYTIA % ([2]; 5 μg/mL) was 36%, the P24 % ([2]; 5 μg/mL) was 100% and the P24 ([2]; 10 μg/mL) was 4.1 × 10^4 units/mL. For the same substance, the “SYNCYTIA (2 DAYS) MEAN” value ([2]; 10 μg/mL) was 3, the SYNCYTIA % ([2]; 10 μg/mL) was 7% and the P24 % ([2]; 10 μg/mL) was 11%. The “SYNCYTIA (2 DAYS) MEAN” value ([2]; 20 μg/mL) was 5, the SYNCYTIA % ([2]; 20 μg/mL) was 12% and the P24 [3] was 26880 pg/mL. For the same substance, the “MEAN SYNCYTIA” value [3] was 153, the P24 % [3] was 95% and the SYNCYTIA % [3] was 129%. The ED50 [4] was greater than 10 mg/L and the TD50 [5] was greater than 100 µg/mL.

In the case of “poly{imino[2,2'-disulfo(1,1'-biphenyl)-4,4'-diyl]iminocarbonyl}, alpha-{[(4-methylphenyl)amino]carbonyl}-omega[(4-methylphenyl)amino]- [Example 1B]”, the “SYNCYTIA (2 DAYS) MEAN” value ([2]; 0.01 μg/mL) is reported as 47, the SYNCYTIA % ([2]; 0.01 μg/mL) is reported as 112% and the P24 ([2]; 0.03 μg/mL) is reported as 4.1 × 10^5 units/mL. For the same substance, the “SYNCYTIA (2 DAYS) MEAN” value ([2]; 0.03 μg/mL) was 42, the SYNCYTIA % ([2]; 0.03 μg/mL) was 100% and the P24 % ([2]; 0.03 μg/mL) was 100%. The P24 ([2]; 0.1 μg/mL) was 4.4 × 10^5 units/mL, the “SYNCYTIA (2 DAYS) MEAN” value ([2]; 0.1 μg/mL) was 25 and the SYNCYTIA % ([2]; 0.1 μg/mL) was 58%. For the same substance, the P24 % ([2]; 0.1 μg/mL) was 100%, the P24 ([2]; 0.3 μg/mL) was 3.8 × 10^4 units/mL and the “SYNCYTIA (2 DAYS) MEAN” value ([2]; 0.3 μg/mL) was 1. The SYNCYTIA % ([2]; 0.3 μg/mL) was 2%, the P24 % ([2]; 0.3 μg/mL) was 11% and the P24 ([2]; 1 μg/mL) was 1.6 × 10^3 units/mL. For the same substance, the “SYNCYTIA (2 DAYS) MEAN” value ([2]; 1 μg/mL) was 0, the SYNCYTIA % ([2]; 1 μg/mL) was 0% and the P24 % ([2]; 1 μg/mL) was 0.4%. For the same substance, the “SYNCYTIA (2 DAYS) MEAN” value ([2]; 3 μg/mL) was 0, the SYNCYTIA % ([2]; 3 μg/mL) was 0% and the “SYNCYTIA (2 DAYS) MEAN” value ([2]; 10 μg/mL) was 0. The SYNCYTIA % ([2]; 10 μg/mL) was 0%, the P24 [3] was 2790 pg/mL and the “MEAN SYNCYTIA” value [3] was 52. The P24 % [3] was 10%, the SYNCYTIA % [3] was 44% and the P24 ([6]; 0.6 μg/mL) was 32820 pg/mL. The “P24 % CONTROL” value ([6]; 0.6 μg/mL) was 0.1%, the P24 ([6]; 1.25 μg/mL) was 35890 pg/mL and the “P24 % CONTROL” value ([6]; 1.25 μg/mL) was less than 0.1%. For the same substance, the P24 ([6]; 2.5 μg/mL) was 365 pg/mL, the “P24 % CONTROL” value ([6]; 2.5 μg/mL) was less than 0.1% and the SYNCYTIA ([6]; 2.5 μg/mL) was 0. For the same substance, the P24 ([6]; 5.0 μg/mL) was 465 pg/mL, the “P24 % CONTROL” value ([6]; 5.0 μg/mL) was less than 0.1% and the SYNCYTIA ([6]; 5.0 μg/mL) was 0. It also gave an ED50 [4] of 2.2 mg/L and a TD50 [5] greater than 100 µg/mL.
